Earlier results, collected in US9487504B2, “Imidazolyl analogs as syk inhibitors” (Merck Sharp & Dohme Corp., priority 2012, dated 2016).

Legend:
[1] = tested on: allergic rhinitis; conditions: phase II clinical trial; cited from earlier work
[2] = tested on: allergic rhinitis; conditions: dosed intranasally, phase I/II study; cited from earlier work

Oc1cccc(Nc2ncc(F)c(Nc3cccc(O)c3)n2)c1 [Example R112]
efficacy versus placebo [1]: lack of efficacy versus placebo | PGD2 change [2]: statistically significant decrease in PGD2 | clinical safety [2]: safe across a range of indicators
